Reference: PubChem BioAssay (NCI)
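All cell lines were grown in 96-well plates and treated with compound for 48 hours. At the GI50, growth is halved. TGI denotes the concentration required for complete inhibition of growth.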

Experiments:
Experiment in all cases: growth of human tumour cells (NCI), 48 h
[1] = test system: HT29 colon
[2] = test system: OVCAR-3 ovarian
[3] = test system: OVCAR-8 ovarian
[4] = test system: RPMI-8226 leukemia
[5] = test system: SN12C renal
[6] = test system: U251 CNS
[7] = test system: UACC-257 melanoma
[8] = test system: UO-31 renal
[9] = test system: SK-OV-3 ovarian
[10] = test system: MCF7 breast

SMILES	TGI [1] [µM]	TGI [2] [µM]	TGI [3] [µM]	TGI [4] [µM]	TGI [5] [µM]	TGI [6] [µM]	TGI [7] [µM]	TGI [8] [µM]	TGI [9] [µM]	GI50 [1] [µM]	GI50 [10] [µM]	TGI [10] [µM]	GI50 [2] [µM]	GI50 [3] [µM]	GI50 [4] [µM]	GI50 [9] [µM]	GI50 [5] [µM]	GI50 [6] [µM]	GI50 [7] [µM]	GI50 [8] [µM]
CN(c1ccccc1)c1c(Cl)c(=O)oc2c1ccc1occc12	> 100	> 100	> 100	> 100	> 100	> 100	> 100	> 100	–	–	–	–	–	–	–	–	–	–	–	–
CCOC(=O)C1(C)CCCCC(=O)N1 (stereo unspecified)	> 100	> 100	> 100	–	> 100	> 100	–	> 100	> 100	–	–	–	–	–	–	–	–	–	–	–
O=P(O)(O)C1(P(=O)(O)O)CC1	> 100	> 100	> 100	> 100	> 100	> 100	> 100	> 100	> 100	–	–	–	–	–	–	–	–	–	–	–
CN(CC(=O)N(Cc1ccc(C2CCCCC2)cc1)c1ccc(C(=O)O)cc1)S(=O)(=O)c1c(F)c(F)c(F)c(F)c1F	4.11	3.19	5.79	7.4	4.88	3.31	3.71	4.73	3.8	2.01	1.65	3.48	1.79	2.5	2.85	1.93	2.22	1.86	2.01	1.91
COc1cccc(/C=C2\COc3ccc(-c4ccccc4)cc3C2=O)c1	4.72	–	6.14	–	7.49	3.05	–	9.12	35.8	1.7	2.05	9.17	–	2.21	–	5.25	2.33	1.56	–	2.98
COc1cc(CCc2ccc(N)cc2)cc(OC)c1OC	> 100	> 100	> 100	> 100	> 100	> 100	> 100	> 93.1	> 100	–	–	–	–	–	–	–	–	–	–	–
O=C(CC(Cl)=C(Cl)Cl)c1cccc(Cl)c1Cl	> 100	–	> 100	> 100	> 100	> 100	> 100	> 100	> 100	75.4	66.8	> 100	–	> 100	82.7	> 100	46.9	46.3	> 100	59.4
CCCCCCC[CH2][Sn]1([CH2]CCCCCCC)[O]C(=O)c2cccnc2[O]1	> 100	> 100	> 100	> 100	> 100	> 100	> 100	> 100	> 100	> 100	–	–	> 100	> 100	> 100	> 100	> 100	> 100	> 100	> 100
ClC(Cl)[Si]12OCCN(CCO1)CCO2	> 100	> 100	> 100	> 100	> 100	> 100	> 100	> 100	> 100	–	–	–	–	–	–	–	–	–	–	–
COc1cc2nc3cc([N+](=O)[O-])ccc3c(NCCNCC(C)(C)O)c2cc1OC	1.4	1.3	4.48	5.8	–	2.31	4.19	5.93	6.51	0.327	0.372	2.04	0.373	0.769	1.49	2.01	–	0.533	1.94	1.85
CCSc1c2ccccc2c(-c2nc(F)nc(F)n2)n1CCc1ccccc1	> 100	> 100	–	> 100	> 100	> 100	–	> 100	–	–	–	–	–	–	–	–	–	–	–	–
CCOC(=O)COc1ccc2c(C)cc(=O)oc2c1	> 100	> 100	> 100	> 100	> 100	> 100	> 100	> 100	–	–	–	> 100	–	–	–	–	–	–	–	–
CC(=O)c1c(C)[nH]c(-c2nc3ccc(N4CCN(C)CC4)cc3[nH]2)c1-c1ccccc1	18.5	15	> 100	–	23.2	72.6	17.9	11.8	> 100	0.437	0.266	13.5	1.11	3.08	–	0.97	2.34	3.53	1.46	0.374
C[C@]12CCC3[C@@H](CC[C@@H]4c5nonc5CC[C@]34C)C1CC[C@@H]2O (stereo partly specified)	> 100	62.1	> 100	38.9	53.2	45.7	46.9	–	84.9	–	–	–	–	–	–	–	–	–	–	–
Nc1ncnc2c1ncn2C1OC(CO)C(O)C1N (stereo unspecified)	> 100	> 100	> 100	> 100	> 100	> 100	> 100	> 100	> 100	–	–	–	–	–	–	–	–	–	–	–
COc1cccc(-c2cc(=O)c3ccccc3[nH]2)c1	> 100	> 31.6	> 72.7	> 100	> 100	> 100	–	> 100	> 100	–	–	–	–	–	–	–	–	–	–	–
Cc1ccc(S(=O)(=O)NC(CN)C(=O)O)cc1 (stereo unspecified)	> 100	> 100	> 100	> 100	–	> 100	> 100	> 100	> 100	–	–	> 100	–	–	–	–	–	–	–	–
Nc1c(Cl)ncnc1NCCCNc1ncnc(Cl)c1N	> 100	> 100	> 100	> 100	> 100	> 100	> 100	> 100	> 100	–	–	–	–	–	–	–	–	–	–	–
COc1cc2c(=O)[nH]c3cc([N+](=O)[O-])ccc3c2cc1[N+](=O)[O-]	> 100	31.7	88.1	–	> 100	–	> 100	> 100	38.2	2.93	0.979	> 100	3.85	3.3	–	8.7	9.97	–	3.28	2.03

SMILES	TGI [1] [µM]	TGI [2] [µM]	TGI [3] [µM]	TGI [4] [µM]	TGI [5] [µM]	TGI [6] [µM]	TGI [7] [µM]	TGI [8] [µM]	TGI [9] [µM]	GI50 [1] [µM]	GI50 [10] [µM]	TGI [10] [µM]	GI50 [2] [µM]	GI50 [3] [µM]	GI50 [4] [µM]	GI50 [9] [µM]	GI50 [5] [µM]	GI50 [6] [µM]	GI50 [7] [µM]	GI50 [8] [µM]
CN(CCCNC(=O)CCOCCOCCOCCNC(=O)Cc1ccc2ccc3cccc4ccc1c2c34)CCCNc1cc(-c2ccc3ccccc3c2)nc2ccccc12	0.419	1.17	0.735	–	8.44	0.938	0.908	13.6	1.2	0.108	0.283	0.771	0.572	0.341	–	0.634	3.59	0.472	0.478	5.1
Cc1ccc(S(=O)(=O)N/N=C(/c2nc3ccc([N+](=O)[O-])cc3[nH]c2=O)C(O)c2ccc(C(O)/C(=N\NS(=O)(=O)c3ccc(C)cc3)c3nc4ccc([N+](=O)[O-])cc4[nH]c3=O)cc2)cc1 (stereo unspecified)	> 100	> 100	> 100	> 100	–	> 100	> 100	> 100	> 100	–	–	–	–	–	–	–	–	–	–	–
CCN1CCN(C(=O)[C@]23CCC(C)(C)C[C@@H]2C2=CC[C@@H]4[C@@]5(C)C/C(=C/c6ccncc6)C(=O)C(C)(C)[C@@H]5CC[C@@]4(C)[C@]2(C)CC3)CC1	3.14	2.91	–	4.64	2.66	2.87	3.28	2.5	4.41	1.38	1.08	2.53	1.49	–	1.25	2.1	1.31	1.42	1.51	1.24
CN1CCN(CCCOc2cccc3nc(Nc4ccc(Cl)c(C(F)(F)F)c4)ccc23)CC1	–	3.31	–	–	3.38	3.23	3.5	2.88	4.35	–	1.41	2.99	1.81	–	–	1.99	1.6	1.49	1.72	1.46
Nc1ncnc2c1ncn2C1CC(OCc2ccccc2[N+](=O)[O-])C(CO)O1 (stereo unspecified)	> 50	> 50	> 50	> 50	> 50	> 50	> 50	48	> 50	–	–	–	–	–	–	–	–	–	–	–
c1ccc2c(c1)cc1n2CC2CN=NC12 (stereo unspecified)	> 100	> 100	> 100	> 100	> 100	> 100	> 100	> 100	> 100	–	–	–	–	–	–	–	–	–	–	–
O=C1c2ccccc2C(=O)c2c(OCCOCCO)cccc21	> 100	> 100	> 100	–	8.08	> 100	> 100	> 100	> 100	–	–	> 100	–	–	–	–	–	–	–	–
c1ccc2c3c([nH]c2c1)C(c1ccc(C2NCCc4c2[nH]c2ccccc42)cc1)NCC3 (stereo unspecified)	0.735	2.6	–	1.09	3.05	1.1	3.52	2.26	4.14	0.28	0.393	1.75	1.24	–	0.34	1.88	1.47	0.321	1.91	1.04
CC1=C(C(=O)Nc2cc(F)c(F)cc2F)C(c2ccc([N+](=O)[O-])cc2)C(C(=O)Nc2cc(F)c(F)cc2F)=C(C)N1	> 100	80.8	> 100	45.1	> 100	> 100	> 100	70.6	> 100	–	–	–	–	–	–	–	–	–	–	–
Cn1nc(-c2ccccc2)c2c(/C=C/c3ccccc3)onc2c1=O	> 100	> 100	> 100	> 100	> 100	> 100	> 100	> 100	> 100	–	–	–	–	–	–	–	–	–	–	–
CC(=O)C1=C(O)C2C3c4c[nH]c5cccc(c45)CC3C(C)(C)N2C1=O (stereo unspecified)	> 100	74.3	–	> 100	–	> 100	> 100	81.6	> 100	–	–	–	–	–	–	–	–	–	–	–
CC1=C(Nc2ccc(N3CCN(C)CC3)cc2)C(=O)c2cncnc2C1=O	61.8	4.28	6.28	11.7	4.48	–	6.42	33.5	35.3	10.2	1.92	4.19	1.97	2.28	3.26	16.7	2.02	–	2.34	13.9
C=C1C(=O)OC2/C=C(/C)C(OC(C)=O)C/C=C(\C)C(OC(=O)C3(C)OC3C)C(O)C12 (stereo unspecified)	> 100	> 100	> 100	> 100	> 100	> 100	> 100	–	> 100	–	–	> 100	–	–	–	–	–	–	–	–
CCOc1ccc(NC(=O)CC2C(=O)Nc3ccccc3S2(=O)=O)cc1 (stereo unspecified)	> 100	> 100	> 100	> 100	> 100	> 100	> 100	> 100	–	–	–	–	–	–	–	–	–	–	–	–
CC(=O)OC1COC(n2c(=S)n(-c3ccccc3)c(=O)c3ccccc32)C(OC(C)=O)C1OC(C)=O (stereo unspecified)	> 100	> 100	> 100	> 100	> 100	> 100	> 100	> 100	> 100	–	–	–	–	–	–	–	–	–	–	–
C=CCc1cc(OC)c2c(c1)C(OC)CC(c1ccc(OC)c(OC)c1)O2 (stereo unspecified)	> 100	> 100	> 100	> 100	> 100	> 100	> 100	> 100	> 100	–	–	–	–	–	–	–	–	–	–	–
CC1(C)C(=O)C(C)(C)C1=S	> 100	> 100	> 100	> 100	> 100	> 100	> 100	> 100	> 100	–	–	–	–	–	–	–	–	–	–	–
CN1c2ccccc2N(C(=O)c2ccccc2)C(CC(=O)O)c2cccn21 (stereo unspecified)	> 100	> 100	> 100	> 100	> 100	> 100	> 100	> 100	> 100	–	–	–	–	–	–	–	–	–	–	–
